From paper PMC10630452, “The tumor-enriched small molecule gambogic amide suppresses glioma by targeting WDR1-dependent cytoskeleton remodeling” (Signal Transduction and Targeted Therapy, 2023)

How the values were obtained:
T2-4 cells (PDC) = experiment: IC50 assay (MTS cell viability); assay type: cell-based; settings: Homo sapiens, T2-4, PDC, 48 h
Method: (§1) Four PDC lines (T12-1, T12-2, T2-4, T19-1) obtained from the Beijing Tiantan Hospital[53] and three GSC lines (GSC2, U87MG-SLC, U251-SLC) were established and verified in our previous work.[17] Two GCSC lines were kindly provided by Dr. Ran.[54] These cell lines were cultured in neurobasal medium (Gibco) containing 2% B27 (Gibco), 1% 100 × Antibiotic-Antimycotic (Gibco), 2 mmol/L L-glutamine (catalog SH30034.01, HyClone), 20 ng/mL bFGF (catalog 100-18B-50UG, PeproTech), 20 ng/mL EGF (catalog AF-100-15-100UG, PeproTech), and 10 μg/mL heparin (Sigma‒Aldrich). H1-NSCs obtained from D.Q. Pei’s laboratory (Guangzhou Institutes of Biomedicine and Health, Chinese Academy of Sciences, Guangzhou, China), were cultured in the same medium as the PDCs, with the addition of 1% N-2 supplement (Gibco, Thermo Fisher Scientific). The human astrocyte (HA) cell line was purchased from ScienCell and cultured in commercial astrocyte medium (catalog 1801, ScienCell) supplemented with 1% AGS (ScienCell), 2% FBS (ScienCell) and 1% P/S solution (ScienCell). Regarding the GC cell lines, U87MG cells were purchased from the American Type Culture Collection (ATCC), and U251 cells were purchased from the Cell Center of Peking Union Medical College. The GC cells were cultured in DMEM (Gibco) supplemented with 10% FBS (ScienCell) and 1% 100 × Antibiotic-Antimycotic.
(§2) Cells were seeded in 96-well plates and treated with 0, 0.03, 0.1, 0.3, 1, 3, 10, or 30 μM GA-amide (Santa Cruz) in triplicate. After 48 h of incubation, cell viability was quantified using the MTS assay, and the GA-amide cytotoxicity curve was estimated using GraphPad Prism.

[1] = tested on: HA (human astrocyte) cells; experiment: IC50 assay (MTS cell viability); assay type: cell-based; settings: normal cells (NC), 48 h
Method: as §1, §2

U87MG-SLC cells (GSC) = experiment: IC50 assay (MTS cell viability); assay type: cell-based; settings: 48 h
Method: as §1, §2

U251-SLC cells (GSC) = experiment: IC50 assay (MTS cell viability); assay type: cell-based; settings: 48 h
Method: as §1, §2

T19-1 cells (PDC) = experiment: IC50 assay (MTS cell viability); assay type: cell-based; settings: Homo sapiens, T19-1, PDC, 48 h
Method: as §1, §2

GSC2 cells (GSC) = experiment: IC50 assay (MTS cell viability); assay type: cell-based; settings: 48 h
Method: as §1, §2

WDR1 [2] = target: T1, WDR1 (Homo sapiens, UniProt O75083); experiment: Cellular thermal shift assay (CETSA) in T2-4 cells; assay type: cell-based; settings: 3 µM, 1 h, 67°C–70°C
T1 construct: GA-amide protected WDR1 at different temperature gradients in the CETSA in T2-4 cells; endogenous in cells; host or cells: T2-4 patient-derived glioma cells
Method: The cellular thermal shift assay (CETSA) has been described previously. Briefly, cells were incubated with DMSO or 3 µM GA-amide for 1 h and washed with PBS three times. Then, the cells were suspended in 1 mL of PBS and divided into equal volumes, followed by heating for 3 min at the indicated temperatures. After heating, three snap freeze–thaw cycles were applied to lyse the cells, and western blotting was performed as previously described.

PDCs = experiment: Tumor sphere formation assay; assay type: cell-based, human
Method: For the tumor sphere formation assay, cells were inoculated in 96-well plates at 600 cells/well in a volume of 100 μL. The tumor spheres with a diameter of 50–100 μm and a diameter of over 100 μm were counted separately under a microscope after 14 days. For the limiting dilution assay, cells were dissociated to generate a single-cell suspension, which was diluted along a gradient for seeding in a 96-well plate at concentrations ranging from 400 cells to 25 cells in a volume of 100 μL per well.

[3] = tested on: TMZ-resistant cells (T2-4, GSC2 and T12-1); experiment: Time curve cell viability assay (MTS); assay type: cell-based; settings: PDCs and GSCs
Method: (§3) Fig. 2 The BBB permeability and tumor suppressor ability of GA-amide compared with TMZ. GA-amide (a) or TMZ (b) concentration in the tumor area and normal brain tissue following a single injection of GA-amide (10 mg/kg, i.v.) or TMZ (10 mg/kg, i.v.). The data are presented as the means ± SEMs (n = 3). c Western blot analysis of the expression of TrkA in mouse tumor tissues (T) and normal brain tissues (N), n = 4. d Western blot analysis of glycosylated TrkA expression in human normal brain tissues (N) and glioma tissues of different grades. e Time curve of GA-amide and TMZ treatment in a cell viability assay (MTS) in T2-4, GSC2 and T12-1 cells. f–h A PDX mouse model was established, and the mice were treated with vehicle (control, n = 9), 2 mg/kg GA-amide (n = 9), 2 mg/kg GAC (n = 9) or […] TMZ (n = 8) by i.p. injection daily for 10 days. A summary photograph is presented in (f), statistical results in (g) and the body weights of mice in (h); the mean ± SEMs are shown. n.s: P ≥ 0.05, *P < 0.05, **P < 0.01 and ***P < 0.001 compared with the control group by one-way ANOVA at each time point

[4] = BBB permeability assay in U87MG-SLC intracranial xenograft mice; assay type: in vivo, mouse; settings: nude, mouse, in vivo, iv, 10 mg/kg
Method: as §3
Mice bearing U87MG-SLC cell intracranial xenografts were injected with GA-amide (i.v.), and tissues from the brain tumor area and normal brain tissues were collected at different times after injection. […] The diagnostic product ions for GA-amide were detected at m/z 628.3/572.2.

WDR1 [5] = target: T1, WDR1; experiment: Drug affinity responsive target stability (DARTS) in T2-4 cells; assay type: binding; settings: T2-4 lysate, 1 h incubation, pronase 30 min
Method: The drug affinity responsive target stability (DARTS) method was performed following a previously described procedure.[32] In brief, cells were collected and lysed with M-PER lysis buffer (catalog 78501, Thermo Fisher Scientific) containing complete protease inhibitor (catalog 04693124001, Roche) and phosphatase inhibitors (catalog 04906845001, Roche). Then, the lysis buffer was supplemented with TNC buffer. The lysates were aliquoted into 1.5 mL tubes and incubated with DMSO or different concentrations of GA-amide for 1 h at room temperature. After incubation, the lysates were digested with 1 μg of pronase for every 300 μg of lysate for exactly 30 min. Then, protein loading buffer was added immediately, and the lysates were heated to stop proteolysis. Western blot analysis was performed for further analysis.

T1 sequence (O75083 whole entry): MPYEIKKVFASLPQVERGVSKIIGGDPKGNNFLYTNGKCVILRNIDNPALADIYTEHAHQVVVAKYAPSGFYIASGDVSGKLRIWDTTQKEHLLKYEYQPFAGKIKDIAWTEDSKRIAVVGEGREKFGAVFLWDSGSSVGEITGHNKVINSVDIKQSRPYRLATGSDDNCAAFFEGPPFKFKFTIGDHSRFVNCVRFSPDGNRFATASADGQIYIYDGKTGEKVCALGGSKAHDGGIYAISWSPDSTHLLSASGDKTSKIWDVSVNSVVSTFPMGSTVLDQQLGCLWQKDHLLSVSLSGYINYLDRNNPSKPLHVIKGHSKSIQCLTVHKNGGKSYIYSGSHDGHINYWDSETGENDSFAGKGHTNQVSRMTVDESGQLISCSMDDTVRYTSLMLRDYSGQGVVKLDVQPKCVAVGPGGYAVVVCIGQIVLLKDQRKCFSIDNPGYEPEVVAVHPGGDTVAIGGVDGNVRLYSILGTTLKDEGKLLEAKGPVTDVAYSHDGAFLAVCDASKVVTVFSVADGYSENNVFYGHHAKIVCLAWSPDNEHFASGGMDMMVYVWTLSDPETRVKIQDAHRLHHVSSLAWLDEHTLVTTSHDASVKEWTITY

CC(C)=CCC[C@]1(C)C=Cc2c(O)c3c(c(CC=C(C)C)c2O1)O[C@]12C(=C[C@@H]4CC1C(C)(C)O[C@@]2(C/C=C(/C)C(N)=O)C4=O)C3=O [GA-amide, gambogic amide]
IC50 (T2-4 cells (PDC)): 167 nM
IC50 [1]: 1030 nM
IC50 (U87MG-SLC cells (GSC)): 399 nM
IC50 (U251-SLC cells (GSC)): 214 nM
IC50 (T19-1 cells (PDC)): 277 nM
IC50 (GSC2 cells (GSC)): 133 nM
WDR1 thermal stabilization (western blot band) (WDR1 [2]): the band persisted in the cells treated with GA-amide
tertiary tumor sphere formation (PDCs; T2-4 and T12-2, cells from secondary spheres pretreated 4 h): still suppressed
secondary tumor sphere formation potential (PDCs; pretreatment 4 h with 0.3 μM, 1 μM and 3 μM): completely abolished
viability of TMZ-resistant cells over time [3]: effectively reduced the viability of TMZ-resistant cells
Tmax [4]: 2 min
WDR1 stabilization against pronase digestion (WDR1 [5]): significantly promoted WDR1 stabilization during pronase-induced degradation
